Literature values in article PMC4844649, “A first-in-Asian phase 1 study to evaluate safety, pharmacokinetics and clinical activity of VS-6063, a focal adhesion kinase (FAK) inhibitor in Japanese patients with advanced solid tumors” (Cancer Chemotherapy and Pharmacology, 2016).
Where two headings read alike, the source gives them in different places.

Experiments:
advanced solid tumors = conditions: cited from earlier work
[1] = test system: Tregs and CD8 + T cells in the tumor microenvironment; set-up: method as in PMID 26406376; conditions: squamous cell carcinoma model ref 17; cited from earlier work
[2] = set-up: method as in earlier work; conditions: at the higher doses, phase 1 dose-escalation ref 11, 12; cited from earlier work

CN(c1ncccc1CNc1nc(Nc2ccc3c(c2)CC(=O)N3)ncc1C(F)(F)F)S(C)(=O)=O [PF-00562271]
objective radiographic responses (advanced solid tumors; phase 1 ref 10): No objective radiographic responses

CNC(=O)c1ccccc1Nc1cc(Nc2ccc(N3CCOCC3)cc2OC)ncc1C(F)(F)F [VS-4718]
effect on Tregs and CD8 + T cell-mediated anti-tumor response [1]: drives depletion of Tregs and promotes a CD8 + T cell-mediated anti-tumor response

CONC(=O)c1ccccc1Nc1cc(Nc2cc(C)nn2C(C)C)ncc1Cl [GSK2256098]
objective radiographic responses (advanced solid tumors; phase 1 ref 15): No objective radiographic responses

COc1cc(C(=O)NC2CCN(C)CC2)c(F)cc1Nc1ncc(C(F)(F)F)c(Oc2cccc3c2C(=O)N(C)C3)n1 [BI 853520]
dose-limiting toxicities [2]: both proteinuria and fatigue were dose-limiting (Grade 3)
objective radiographic responses (advanced solid tumors; phase 1 ref 11, 12): No objective radiographic responses
